Laboratory results published in patent US5369095A, “Compositions and method comprising substituted glycosides as mucus membrane permeation enhancers” (priority 1993, dated 1994).

Columns and labels:
[1] = Penetration of para-aminoclonidine through the cornea: amount in aqueous humor after topical dosing, liquid scintillation counting; assay type: in vivo, New Zealand albino rabbits; details: 60 minutes; 0.125% para-amino-clonidine with 0.05% dodecyl maltoside versus drug without dodecyl maltoside; 30 ul topical
Procedure: Nine New Zealand albino rabbits were selected for evaluation of the penetration through the cornea of the para-amino-clonidine formulation set forth above. All rabbits received 30 ul of the 0.125% para-amino-clonidinetopically in both eyes. Three rabbits were sacrificed at 20 minutes from dosing and aqueous humor was withdrawn from their eyes. The aqueous humor as assayed by liquid scintillation counting to determine the amount of para-amino-clonidine in the aqueous humor. The same procedure was done on 3 different rabbits at 60 minutes from dosing and on another 3 rabbits, 120 minutes from dosing. […] Aqueous humor was withdrawn and assayed as explained above.
Nine New Zealand albino rabbits were selected for evaluation of the penetration through the cornea of the para-amino-clonidine formulation set forth above. All rabbits received 30 ul of the 0.125% para-amino-clonidinetopically in both eyes. Three rabbits were sacrificed at 20 minutes from dosing and their aqueous humor was withdrawn from their eyes. The aqueous humor was assayed by liquid scintillation counting to determine the amount of para-amino-clonidine in the aqueous humor. The same procedure was done on three different rabbits at 60 minutes from dosing and on another three rabbits, 120 minutes from dosing. […] Aqueous humor was withdrawn and assayed as explained above.

[2] = Apparent permeability coefficient through excised cornea mounted between diffusion cells; assay type: in vitro ADME, Albino rabbits
Procedure: Albino rabbits were sacrificed, and within 15 minutes, the corneas were mounted and clamped between diffusion cells according to the published procedure by Schoenwald et al. (J. Pharm. Sci. 72, 1266, 1983). 7 ml of bicarbonated Ringer's solution containing reduced glutathione was added to the endothelial side to serve as the receiver solution. An equal volume of the same solution containing Atenolol, a β-blocker, with or without dodecyl maltoside (DDM) was added to the epithelial side to serve as the donor solution. The apparent permeability coefficient was calculated from the average cumulative amount of drug penetrating through the cornea over time according to Schoenwald.
The procedure in Example 8 was repeated with the following para-amino clonidine formulations.
The procedure of Example 8 was repeated with Atenolol except dodecyl maltoside was substituted with 0.1% amount by weight of each of the following substituted glycosides of this invention and the following results were obtained.

Row | increase in the amount of para-aminoclonidine found in the aqueous humor [1] | permeation for para-amino clonidine as compared to control [2] | Permeability Coefficient ([2]; rabbit) [cm/sec × 10^-6] | Compound
1 | four | superior permeation |  | CCCCCCCCCCCCO[C@@H]1O[C@H](CO)[C@@H](O[C@H]2O[C@H](CO)[C@@H](O)[C@H](O)[C@H]2O)[C@H](O)[C@H]1O [dodecyl maltoside, Dodecyl maltoside]
2 |  |  | 14.0 | Lysophosphatidyl Inositol
